Legend:
Format in all cases: in vivo
Kochia (Kochia scoparia) [1] = experiment: Test A preemergence; conditions: for Plant response rating, Kochia: 125 g ai/ha, preemergence, 0 to 100 scale (0 no effect, 100 complete control); for Kochia plant response rating (0 to 100 scale, 0 is no effect, 100 is complete control): Preemergence, 500 g ai/ha, visual injury approx. 10 d
How it was run: (§1)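 Visual injury scores from 0, no effect, to 100, complete control, were assigned versus untreated controls roughly 10 d after treatment in the greenhouse. Test chemicals, formulated with surfactant in a non-phytotoxic solvent, were applied to planted seeds as a preemergence soil spray or postemergence to one- to two-leaf plants 2 to 10 cm tall, in loam–sand soil.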

[2] = system: barnyardgrass (Echinochloa crus-galli); experiment: Test A preemergence; conditions: for Plant response rating, Barnyardgrass: 125 g ai/ha, preemergence, 0 to 100 scale (0 no effect, 100 complete control); for Barnyardgrass plant response rating (0 to 100 scale, 0 is no effect, 100 is complete control): Preemergence, 500 g ai/ha, visual injury approx. 10 d
How it was run: as §1

[3] = system: giant foxtail (Setaria faberii); experiment: Test A preemergence; conditions: for Plant response rating, Foxtail, Giant: 125 g ai/ha, preemergence, 0 to 100 scale (0 no effect, 100 complete control); for Foxtail, Giant plant response rating (0 to 100 scale, 0 is no effect, 100 is complete control): Preemergence, 500 g ai/ha, visual injury approx. 10 d
How it was run: as §1

[4] = system: pigweed (Amaranthus retroflexus); experiment: Test A preemergence; conditions: for Plant response rating, Pigweed: 125 g ai/ha, preemergence, 0 to 100 scale (0 no effect, 100 complete control); for Pigweed plant response rating (0 to 100 scale, 0 is no effect, 100 is complete control): Preemergence, 500 g ai/ha, visual injury approx. 10 d
[5] = system: ragweed (common ragweed, Ambrosia elatior); experiment: Test A preemergence; conditions: for Plant response rating, Ragweed: 125 g ai/ha, preemergence, 0 to 100 scale (0 no effect, 100 complete control); for Ragweed plant response rating (0 to 100 scale, 0 is no effect, 100 is complete control): Preemergence, 500 g ai/ha, visual injury approx. 10 d
How it was run: as §1

[6] = system: ryegrass, Italian (Italian ryegrass, Lolium multiflorum); experiment: Test A preemergence; conditions: for Plant response rating, Ryegrass, Italian: 125 g ai/ha, preemergence, 0 to 100 scale (0 no effect, 100 complete control); for Ryegrass, Italian plant response rating (0 to 100 scale, 0 is no effect, 100 is complete control): Preemergence, 500 g ai/ha, visual injury approx. 10 d
How it was run: as §1

[7] = system: Galium (catchweed bedstraw, Galium aparine); experiment: Test A postemergence; conditions: postemergence; for Galium plant response rating: 125 g ai/ha, visual injury rating on 0 to 100 scale (0 no effect, 100 complete control), approx. 10 d; for Plant response rating, Galium: 500 g ai/ha, 0 to 100 scale, 0 no effect, 100 complete control
How it was run: as §1

Kochia (Kochia scoparia) [8] = experiment: Test A postemergence; conditions: postemergence; for Kochia plant response rating: 125 g ai/ha, visual injury rating on 0 to 100 scale (0 no effect, 100 complete control), approx. 10 d; for Plant response rating, Kochia: 500 g ai/ha, 0 to 100 scale, 0 no effect, 100 complete control
How it was run: as §1

[9] = system: barnyardgrass (Echinochloa crus-galli); experiment: Test A postemergence; conditions: postemergence; for Barnyardgrass plant response rating: 125 g ai/ha, visual injury rating on 0 to 100 scale (0 no effect, 100 complete control), approx. 10 d; for Plant response rating, Barnyardgrass: 500 g ai/ha, 0 to 100 scale, 0 no effect, 100 complete control
How it was run: as §1

[10] = system: blackgrass (Alopecurus myosuroides); experiment: Test A postemergence; conditions: postemergence; for Blackgrass plant response rating: 125 g ai/ha, visual injury rating on 0 to 100 scale (0 no effect, 100 complete control), approx. 10 d; for Plant response rating, Blackgrass: 500 g ai/ha, 0 to 100 scale, 0 no effect, 100 complete control
How it was run: as §1

corn (Zea mays) = experiment: Test A postemergence; conditions: postemergence; for Corn plant response rating: 125 g ai/ha, visual injury rating on 0 to 100 scale (0 no effect, 100 complete control), approx. 10 d; for Plant response rating, Corn: 500 g ai/ha, 0 to 100 scale, 0 no effect, 100 complete control
How it was run: as §1

[11] = system: giant foxtail (Setaria faberii); experiment: Test A postemergence; conditions: postemergence; for Foxtail, Giant plant response rating: 125 g ai/ha, visual injury rating on 0 to 100 scale (0 no effect, 100 complete control), approx. 10 d; for Plant response rating, Foxtail, Giant: 500 g ai/ha, 0 to 100 scale, 0 no effect, 100 complete control
How it was run: as §1

[12] = system: pigweed (Amaranthus retroflexus); experiment: Test A postemergence; conditions: postemergence; for Pigweed plant response rating: 125 g ai/ha, visual injury rating on 0 to 100 scale (0 no effect, 100 complete control), approx. 10 d; for Plant response rating, Pigweed: 500 g ai/ha, 0 to 100 scale, 0 no effect, 100 complete control
How it was run: as §1

[13] = system: ragweed (common ragweed, Ambrosia elatior); experiment: Test A postemergence; conditions: postemergence; for Ragweed plant response rating: 125 g ai/ha, visual injury rating on 0 to 100 scale (0 no effect, 100 complete control), approx. 10 d; for Plant response rating, Ragweed: 500 g ai/ha, 0 to 100 scale, 0 no effect, 100 complete control
How it was run: as §1

[14] = system: ryegrass, Italian (Italian ryegrass, Lolium multiflorum); experiment: Test A postemergence; conditions: postemergence; for Ryegrass, Italian plant response rating: 125 g ai/ha, visual injury rating on 0 to 100 scale (0 no effect, 100 complete control), approx. 10 d; for Plant response rating, Ryegrass, Italian: 500 g ai/ha, 0 to 100 scale, 0 no effect, 100 complete control
How it was run: as §1

[15] = system: wheat (Triticum aestivum); experiment: Test A postemergence; conditions: postemergence; for Wheat plant response rating: 125 g ai/ha, visual injury rating on 0 to 100 scale (0 no effect, 100 complete control), approx. 10 d; for Plant response rating, Wheat: 500 g ai/ha, 0 to 100 scale, 0 no effect, 100 complete control
How it was run: as §1

[16] = system: barnyardgrass (Echinochloa crus-galli); experiment: Test B flooded paddy test; conditions: Flood, 0 to 100 scale where 0 is no effect and 100 is complete control, 13 to 15 d
How it was run: (§2)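 Visual ratings (0 none to 100 complete control) are relative to untreated plants, taken 13–15 d after treatment in a greenhouse. Test material went straight into floodwater standing 3 cm above the soil, kept constant, on plants at the 2-leaf stage.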

[17] = system: ducksalad (Heteranthera limosa); experiment: Test B flooded paddy test; conditions: Flood, 0 to 100 scale where 0 is no effect and 100 is complete control, 13 to 15 d
How it was run: as §2

rice (Oryra sativa) = experiment: Test B flooded paddy test; conditions: Flood, 0 to 100 scale where 0 is no effect and 100 is complete control, 13 to 15 d
How it was run: as §2

[18] = system: sedge, umbrella (small-flower umbrella sedge, Cyperus difformis); experiment: Test B flooded paddy test; conditions: Flood, 0 to 100 scale where 0 is no effect and 100 is complete control, 13 to 15 d
How it was run: as §2

Compound | Plant response rating, Kochia (Kochia (Kochia scoparia) [1]) | Kochia plant response rating (0 to 100 scale, 0 is no effect, 100 is complete control) (Kochia (Kochia scoparia) [1]) | Plant response rating, Barnyardgrass [2] | Barnyardgrass plant response rating (0 to 100 scale, 0 is no effect, 100 is complete control) [2] | Plant response rating, Foxtail, Giant [3] | Foxtail, Giant plant response rating (0 to 100 scale, 0 is no effect, 100 is complete control) [3] | Plant response rating, Pigweed [4] | Pigweed plant response rating (0 to 100 scale, 0 is no effect, 100 is complete control) [4] | Plant response rating, Ragweed [5] | Ragweed plant response rating (0 to 100 scale, 0 is no effect, 100 is complete control) [5] | Plant response rating, Ryegrass, Italian [6] | Ryegrass, Italian plant response rating (0 to 100 scale, 0 is no effect, 100 is complete control) [6] | Galium plant response rating [7] | Plant response rating, Galium [7] | Kochia plant response rating (Kochia (Kochia scoparia) [8]) | Plant response rating, Kochia (Kochia (Kochia scoparia) [8]) | Barnyardgrass plant response rating [9] | Plant response rating, Barnyardgrass [9] | Blackgrass plant response rating [10] | Plant response rating, Blackgrass [10] | further results
Cc1cc(C2CN(C)C(=O)C2C(=O)Nc2ccccc2S(C)(=O)=O)ccc1F (stereo not drawn) [Compound 405] | 50 | 70 | 90 | 90 | 90 | 90 | 50 | 60 | 20 | 70 | 0 | 30 | 60 | 60 | 40 | 50 | 90 | 90 | 50 | 60 | Corn plant response rating (corn (Zea mays)): 30; Plant response rating, Corn (corn (Zea mays)): 80; Foxtail, Giant plant response rating [11]: 80; Plant response rating, Foxtail, Giant [11]: 80; Pigweed plant response rating [12]: 40; Plant response rating, Pigweed [12]: 50; Ragweed plant response rating [13]: 0; Plant response rating, Ragweed [13]: 50; Ryegrass, Italian plant response rating [14]: 30; Plant response rating, Ryegrass, Italian [14]: 60; Wheat plant response rating [15]: 60; Plant response rating, Wheat [15]: 80; Plant response rating, Barnyardgrass ([16]; 250 g ai/ha): 70; Plant response rating, Ducksalad ([17]; 250 g ai/ha): 85; Plant response rating, Rice (rice (Oryra sativa); 250 g ai/ha): 0; Plant response rating, Sedge, Umbrella ([18]; 250 g ai/ha): 0
O=C1NCC(c2cccc(OCC(F)F)c2)C1C(=O)Nc1ccc(F)c(F)c1F (stereo not drawn) [Compound 407] | 0 | 0 | 70 | 80 | 80 | 90 | 0 | 20 | 0 | 0 | 0 | 0 | 0 | 0 | 0 | 40 | 60 | 70 | 30 | 50 | Corn plant response rating (corn (Zea mays)): 0; Plant response rating, Corn (corn (Zea mays)): 40; Foxtail, Giant plant response rating [11]: 70; Plant response rating, Foxtail, Giant [11]: 70; Pigweed plant response rating [12]: 0; Plant response rating, Pigweed [12]: 0; Ragweed plant response rating [13]: 0; Plant response rating, Ragweed [13]: 0; Ryegrass, Italian plant response rating [14]: 0; Plant response rating, Ryegrass, Italian [14]: 0; Wheat plant response rating [15]: 0; Plant response rating, Wheat [15]: 0; Plant response rating, Barnyardgrass ([16]; 500 g ai/ha): 60; Plant response rating, Ducksalad ([17]; 500 g ai/ha): 100; Plant response rating, Rice (rice (Oryra sativa); 500 g ai/ha): 10; Plant response rating, Sedge, Umbrella ([18]; 500 g ai/ha): 0
O=C1NCC(c2ccc(F)c(F)c2)C1C(=O)Nc1ccc(F)cc1Cl (stereo not drawn) [Compound 411] | 0 | 0 | 70 | 80 | 80 | 90 | 0 | 10 | 0 | 0 | 0 | 0 | 30 | 50 | 0 | 0 | 40 | 70 | 0 | 0 | Corn plant response rating (corn (Zea mays)): 0; Plant response rating, Corn (corn (Zea mays)): 0; Foxtail, Giant plant response rating [11]: 40; Plant response rating, Foxtail, Giant [11]: 80; Pigweed plant response rating [12]: 0; Plant response rating, Pigweed [12]: 0; Ragweed plant response rating [13]: 0; Plant response rating, Ragweed [13]: 0; Ryegrass, Italian plant response rating [14]: 0; Plant response rating, Ryegrass, Italian [14]: 0; Wheat plant response rating [15]: 0; Plant response rating, Wheat [15]: 0; Plant response rating, Barnyardgrass ([16]; 500 g ai/ha): 20; Plant response rating, Ducksalad ([17]; 500 g ai/ha): 98; Plant response rating, Rice (rice (Oryra sativa); 500 g ai/ha): 0; Plant response rating, Sedge, Umbrella ([18]; 500 g ai/ha): 0
Cc1cc(NC(=O)C2C(=O)NCC2c2ccc(F)c(F)c2)ccc1F (stereo not drawn) [Compound 412] | 0 | 0 | 40 | 70 | 60 | 70 | 0 | 0 | 0 | 0 | 0 | 0 | 0 | 0 | 0 | 0 | 0 | 0 | 0 | 0 | Corn plant response rating (corn (Zea mays)): 0; Plant response rating, Corn (corn (Zea mays)): 0; Foxtail, Giant plant response rating [11]: 0; Plant response rating, Foxtail, Giant [11]: 0; Pigweed plant response rating [12]: 0; Plant response rating, Pigweed [12]: 0; Ragweed plant response rating [13]: 0; Plant response rating, Ragweed [13]: 0; Ryegrass, Italian plant response rating [14]: 0; Plant response rating, Ryegrass, Italian [14]: 0; Wheat plant response rating [15]: 0; Plant response rating, Wheat [15]: 0; Plant response rating, Barnyardgrass ([16]; 500 g ai/ha): 0; Plant response rating, Ducksalad ([17]; 500 g ai/ha): 30; Plant response rating, Rice (rice (Oryra sativa); 500 g ai/ha): 0; Plant response rating, Sedge, Umbrella ([18]; 500 g ai/ha): 0
COc1ccc(NC(=O)C2C(=O)NCC2c2ccc(F)c(F)c2)cc1F (stereo not drawn) [Compound 415] | 0 | 0 | 0 | 0 | 0 | 0 | 0 | 0 | 0 | 0 | 0 | 0 | 0 | 0 | 0 | 0 | 0 | 0 | 0 | 0 | Corn plant response rating (corn (Zea mays)): 0; Plant response rating, Corn (corn (Zea mays)): 0; Foxtail, Giant plant response rating [11]: 0; Plant response rating, Foxtail, Giant [11]: 0; Pigweed plant response rating [12]: 0; Plant response rating, Pigweed [12]: 0; Ragweed plant response rating [13]: 0; Plant response rating, Ragweed [13]: 0; Ryegrass, Italian plant response rating [14]: 0; Plant response rating, Ryegrass, Italian [14]: 0; Wheat plant response rating [15]: 0; Plant response rating, Wheat [15]: 0; Plant response rating, Barnyardgrass ([16]; 500 g ai/ha): 0; Plant response rating, Ducksalad ([17]; 500 g ai/ha): 0; Plant response rating, Rice (rice (Oryra sativa); 500 g ai/ha): 0; Plant response rating, Sedge, Umbrella ([18]; 500 g ai/ha): 0
